Assay results taken from patent EP0526540B1, “USE OF 5-HT4-RECEPTOR ANTAGONISTS IN THE TREATMENT OF ATRIAL FIBRILLATION, INCLUDING THE PREVENTION OF STROKE” (SMITH KLINE & FRENCH LABORATORIES LIMITED, priority 1990, dated 1991).

Experiments:
cardiac 5-HT4 receptors [1] = biological target: cardiac 5-HT4 receptors (Sus scrofa, UniProt Q6Q253); assay: Piglet spontaneous beating atria screen (right atrium, positive chronotropic effect, antagonism of 5-HT); assay type: cell-based, Porcine
Description: Method (See A. J. Kaumann, 1990, Naunyn-Schmiedeberg's Arch. Pharmacol 342, 619-622).
Piglets of either sex, 2 to 5 days old, were obtained from local farms. Usually 2 piglets were from the same litter. The piglets were anaesthetised with halothene; their hearts rapidly removed and washed free of blood with warm solution containing (mM):120 Na^+, 5 K^+, 2.25 Ca^2+, 0.5 Mg^2+, 98.5 Cl^-, 0.5 SO4^2-, 34 HCO3^-, 1 HPO4^2-, 0.04 EDTA, deionised and double distilled water in glass, equilibrated with 95% O2 and 5% CO2.
After dissection of the right atrium in warm solution, the tissue was set up in an apparatus with a 50 ml. bath (Blinks, 1965 J. Appl. Physiol. 20, 755-757), containing the solution described above supplemented with (mM):15 Na^+, 5 fumarate, 5 pyruvate, 5 L-glutamate, 10 glucose. Experiments were carried out at 37°C. […] The tissue was attached to a Swema SG4-45 strain gauge transducer by means of a stainless steel wire and force recorded on a Watanabe polygraph. […]
A single cumulative concentration-effect curve was determined by the sequential addition of 5-HT or other agonists to the bath in amounts that increased the total concentration in steps of ½ log unit. […] The time of incubation with an antagonist was at least 1 hr before a concentration-effect curve for an agonist was determined.

cardiac 5-HT4 receptors [2] = biological target: T1, cardiac 5-HT4 receptors (Homo sapiens, UniProt Q13639); assay: Human right atrial preparations (force), blocking potency of antagonists; assay type: cell-based; details: Granisetron tested at 20 µM
T1 construct: from tissue; host or cells: human right atrial preparation
T1 sequence (Q13639 whole entry): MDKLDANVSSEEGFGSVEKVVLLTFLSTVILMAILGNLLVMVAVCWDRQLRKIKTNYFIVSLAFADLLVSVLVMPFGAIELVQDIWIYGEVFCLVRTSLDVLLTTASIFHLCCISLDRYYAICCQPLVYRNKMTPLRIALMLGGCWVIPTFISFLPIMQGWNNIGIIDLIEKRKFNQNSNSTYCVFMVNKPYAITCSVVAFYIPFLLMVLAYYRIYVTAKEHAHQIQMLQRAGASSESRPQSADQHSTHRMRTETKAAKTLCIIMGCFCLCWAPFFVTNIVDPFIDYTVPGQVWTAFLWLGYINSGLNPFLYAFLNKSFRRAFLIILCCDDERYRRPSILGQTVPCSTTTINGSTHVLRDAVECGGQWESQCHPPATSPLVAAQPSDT

Chain of cardiac 5-HT4 receptors (Sus scrofa, UniProt Q6Q253) (Q6Q253 1-402): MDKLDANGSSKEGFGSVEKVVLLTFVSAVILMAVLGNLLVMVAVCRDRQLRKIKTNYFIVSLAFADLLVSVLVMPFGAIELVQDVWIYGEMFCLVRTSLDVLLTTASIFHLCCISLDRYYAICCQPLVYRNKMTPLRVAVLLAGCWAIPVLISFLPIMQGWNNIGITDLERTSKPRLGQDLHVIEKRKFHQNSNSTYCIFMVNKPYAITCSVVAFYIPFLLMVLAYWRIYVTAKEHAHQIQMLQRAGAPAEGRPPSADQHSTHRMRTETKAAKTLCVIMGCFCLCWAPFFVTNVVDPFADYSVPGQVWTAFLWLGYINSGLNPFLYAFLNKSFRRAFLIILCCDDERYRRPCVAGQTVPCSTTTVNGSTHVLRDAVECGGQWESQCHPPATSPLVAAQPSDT

Row | pK (-log M equilibrium dissociation constant), blocking potency, Human (force) (cardiac 5-HT4 receptors [2]) | pK (-log M equilibrium dissociation constant), blocking potency, Porcine (rate) (cardiac 5-HT4 receptors [1]; piglet spontaneously beating right atrium, rate, 37°C, 400 nM (±)-propranolol and 6 µM cocaine present, antagonist incubated at least 1 hr, Granisetron tested at 1 µM, preliminary screening results) | Compound | type of antagonism of cardiac 5-HT4 receptors (cardiac 5-HT4 receptors [1]; conclusion from the preliminary screening results of Table 1)
1 | – | – | CN1[C@@H]2CC[C@H]1C[C@@H](OC(=O)c1n[nH]c3ccccc13)C2 [(3-α-tropanyl)-1H-indazole-3-carboxylic acid ester] | competitive antagonist
2 | ineffective (20 µM) | ineffective (1 µM) | CN1C2CCCC1CC(NC(=O)c1nn(C)c3ccccc13)C2 (stereo not drawn) [Granisetron] | –
